Assay results taken from patent US11613547B2 (priority 2019, dated 2023).
Values joined by “and” are separate entries in the source; they are usually repeats but may differ in a detail not shown here. Equal entries are not always repeated. “Also recorded” adds a separate entry of the source. Where two headings read alike, the source gives them in different places.

Legend:
mMOR [1] = biological target: T1, mMOR (Mus musculus, UniProt P42866); experiment: Radioligand competition binding ([125I]IBNtxA), CHO membranes, mMOR; conditions: vs 125IBNtxA (0.1 nM), mean ± SEM
T1 construct: expressed in transfected cells

mKOR [2] = biological target: T2, mKOR (Mus musculus, UniProt P33534); experiment: Radioligand competition binding ([125I]IBNtxA), CHO membranes, mKOR; conditions: vs 125IBNtxA (0.1 nM), mean ± SEM
T2 construct: expressed in transfected cells

mDOR [3] = biological target: T3, mDOR (Mus musculus, UniProt P32300); experiment: Radioligand competition binding ([125I]IBNtxA), CHO membranes, mDOR; conditions: vs 125IBNtxA (0.1 nM), CHO membranes, mean ± SEM
T3 construct: expressed in transfected cells

mMOR [4] = biological target: T1, mMOR; experiment: [35S]GTPγS functional assay, mMOR; format: biochemical; conditions: for EC50: [35S]GTPγS, nM ± SEM
mKOR [5] = biological target: T2, mKOR; experiment: [35S]GTPγS functional assay, mKOR; format: biochemical; conditions: for EC50: [35S]GTPγS, nM ± SEM
mDOR [6] = biological target: T3, mDOR; experiment: [35S]GTPγS functional assay, mDOR; format: biochemical
hMOR [7] = biological target: T4, hMOR (Homo sapiens, UniProt P35372); experiment: cell-based; format: cell-based; conditions: for Emax: HEK-293T, read-out: Gi Emax hMOR
T4 construct: expressed in transfected cells; host or cells: HEK 293T (ATCC CRL-11268), transient

hMOR [8] = biological target: T4, hMOR; experiment: Tango β-arrestin recruitment assay, hMOR; format: cell-based
hKOR [9] = biological target: T5, hKOR (Homo sapiens, UniProt P41145); experiment: cAMP inhibition assay (GloSensor, HEK 293T), hKOR; format: cell-based; conditions: for Emax: HEK-293T, read-out: Gi Emax hKOR; for Gi pEC50±SEM hKOR / EC50: cAMP inhibition; for Bias factor toward G protein, hKOR: cAMP inhibition vs Tango, against U50,488H as control; for EC50: read-out: Gi EC50 hKOR
T5 construct: expressed in transfected cells; host or cells: HEK 293T (ATCC CRL-11268), transient

hKOR [10] = biological target: T5, hKOR; experiment: Tango β-arrestin recruitment assay, hKOR; format: cell-based
[11] = biological target: T6, mouse mu opioid receptor (mMOR) (Mus musculus, UniProt P42866); experiment: cell-based; format: cell-based; conditions: for Emax: read-out: Gi Emax mMOR
T6 construct: expressed in transfected cells; host or cells: HEK-293T, transient (PEI), with BRET sensor cDNAs

[12] = biological target: T6, mouse mu opioid receptor (mMOR); experiment: cell-based; format: cell-based
[13] = biological target: T7, rat kappa opioid receptor (rKOR) (Rattus norvegicus, UniProt P34975); experiment: BRET assay, G-protein activation, rKOR; format: cell-based; conditions: for Gi pEC50±SEM rKOR / EC50: BRET; for EC50: read-out: Gi EC50 rKOR; for Emax: read-out: Gi Emax rKOR
T7 construct: expressed in transfected cells; host or cells: HEK-293T, transient (PEI), with BRET sensor cDNAs

[14] = biological target: T7, rat kappa opioid receptor (rKOR); experiment: BRET assay, arrestin recruitment, rKOR; format: cell-based
[15] = biological target: T8, mouse delta opioid receptor (mDOR) (Mus musculus, UniProt P32300); experiment: BRET assay, G-protein activation, mDOR; format: cell-based; conditions: for Emax: read-out: G-Protein activation Emax % ± SEM
T8 construct: expressed in transfected cells; host or cells: HEK-293T, transient (PEI), with BRET sensor cDNAs

C57BL/6J mice [16] = experiment: 55° C. warm-water tail-withdrawal assay; format: in vivo, mouse; conditions: icv, 55° C. tail withdrawal
Procedure: Tail-withdrawal assay The 55° C. warm-water tail-withdrawal assay was conducted in mice as a measure of acute thermal antinociception as described previously (Reilley et al., 2010). Briefly, each mouse was tested for baseline tail-withdrawal latency prior to drug administration. Following drug administration, the latency for each mouse to withdraw the tail was measured every 10 minutes until latency returned to the baseline value. A maximum response time of 15 seconds was utilized to prevent tissue damage. […] Data are reported as percent antinociception, calculated by the equation: % antinociception=100×[(test latency−baseline latency)/(15−baseline latency)]. This was utilized to account for innate variability between mice. Compounds were administered either, […] (IP) or intracerebroventricular (icv) and the analgesic action of compounds was assessed at the peak effect as described previously (Haley and McCormick, 1957). In brief, mice were anesthetized using isoflurane. A small incision was made, and the drug (2 μl/mouse) was injected (using a 10 μL Hamilton syringe fitted to a 27-gauge needle) into the right lateral ventricle at the following coordinates: 2 mm caudal to bregma, 2 mm lateral to sagittal suture, and 2 mm in depth. Mice were tested for analgesia at the peak effect post injection.

hDOR [17] = biological target: T9, hDOR (Homo sapiens, UniProt P41143); experiment: cAMP inhibition assay, hDOR; format: cell-based; set-up: expressed in transfected cells; conditions: for Emax: read-out: cAMP inhibition Emax % ± SEM
Y312W-hKOR [18] = biological target: T10, Y312W-hKOR (Homo sapiens, UniProt P41145, Y312W); experiment: Tango-arrestin recruitment assay, Y312W-hKOR mutant; format: cell-based; set-up: expressed in transfected cells; conditions: Tango, compared with wild-type KOR
hDOR [19] = biological target: T9, hDOR; experiment: Tango β-arrestin recruitment assay, hDOR; format: cell-based; set-up: expressed in transfected cells; host or cells: HTLA cells expressing TEV fused-beta-Arrestin2; conditions: for Arrestin recruitment pEC50 ± SEM / EC50: hDOR, Tango; for Emax: read-out: Arrestin recruitment Emax % ± SEM
Y312W-hKOR [20] = biological target: T10, Y312W-hKOR; experiment: cAMP inhibition assay, Y312W-hKOR mutant; format: cell-based; set-up: expressed in transfected cells; host or cells: HEK 293T (inferred from the general cAMP method)
[21] = biological target: T8, mouse delta opioid receptor (mDOR); experiment: BRET assay, arrestin recruitment, mDOR; format: cell-based
C57BL/6J mice [22] = conditions: icv, same assay (Aldrich et al., 2014); cited from earlier work
C57 mice = experiment: Respiratory rate (CLAMS); conditions: 10 mg/kg IP or 30 nmol icv, 10 mg/kg
C57BL/6J mice [23] = experiment: Conditioned place preference and aversion; conditions: MP1207 100 nmol icv, morphine 10 mg/kg IP, U50,488h 30 mg/kg IP

N=C(N)NCc1cccc(C(=O)N[C@@H]2CCC3C4Cc5ccc(O)c6c5[C@@]3(CCN4CC3CC3)C2O6)c1 (stereo partly drawn) [MP1208, N-((7R,12bS)-3-(Cyclopropylmethyl)-9-hydroxy-2,3,4,4a,5,6,7,7a-octahydro-1H-4,12-methanobenzofuro[3,2-e]isoquinolin-7-yl)-3-(guanidinomethyl)benzamide]
Ki (mMOR [1]): 0.34 ± 0.01 nM | Ki (mKOR [2]): 0.28 nM | Ki (mDOR [3]): 19.3 nM | Emax (mMOR [4]): 54 ± 0.7% | EC50 (mMOR [4]): 1.1 nM and 1.13 nM | Emax (mKOR [5]): 43 ± 0.8% | EC50 (mKOR [5]): 1.4 nM and 1.36 nM | Emax (mDOR [6]): 10 to 15% | efficacy at mDOR (mDOR [6]; [35S]GTPγS): only weak efficacy | IC50 (mDOR [6]; [35S]GTPγS, antagonism vs 100 nM agonist): 11.4 ± 0.3 nM | EC50 (hMOR [7]): 1.86 nM | Emax (hMOR [7]): 42 ± 1.3% | EC50 (hMOR [7]; read-out: Gi EC50 hMOR): 0.008 nM | arrestin recruitment at hMOR (hMOR [8]; Tango): no recruitment of arrestin was seen; also recorded: no arrestin recruitment was observed | Emax (hKOR [9]): 96 ± 1.9% | Gi pEC50±SEM hKOR (hKOR [9]): 9.9±0.07 | Bias factor toward G protein, hKOR (hKOR [9]): 23 | EC50 (hKOR [9]): 0.14 nM | Emax (hKOR [10]): 48 ± 2.4% | Arrestin pEC50±SEM hKOR (hKOR [10]; Tango, WT-hKOR): 7.79±0.14 | EC50 (hKOR [10]; Tango, WT-hKOR): 16.4 nM | Gi pEC50±SEM mMOR [11]: 8.64±0.29 | Emax [11]: 41 ± 3% | arrestin recruitment at mMOR [12]: no recruitment of βarrestin-2; also recorded: no arrestin recruitment was observed | Gi pEC50±SEM rKOR [13]: 8.97±0.29 | EC50 [13]: 1.1 nM | Emax [13]: 40 ± 2.4% | arrestin recruitment at rKOR ([14]; BRET): no recruitment of βarrestin-2; also recorded: no arrestin recruitment was observed | EC50 ([15]; mDOR, BRET): 26.6 nM | G-Protein activation pEC50 ± SEM ([15]; mDOR, BRET): 7.6 ± 0.20 | Emax [15]: 58 ± 3.3% | antinociceptive ED50 (95% CI) (C57BL/6J mice [16]): 19.8 (12.6-34.0) nmol and 19.8 nmol | cAMP inhibition pEC50 ± SEM (hDOR [17]; hDOR): 8.6 ± 0.13 | Emax (hDOR [17]): 39 ± 1.8% | arrestin recruitment at Y312W-hKOR (Y312W-hKOR [18]): further reduction of arrestin recruitment; also recorded: reduced arrestin measurement | Arrestin recruitment pEC50 ± SEM (hDOR [19]): 5.5 ± 0.27 | EC50 (hDOR [19]): 3620 nM | Emax (hDOR [19]): 62 ± 16.7% | Gi pEC50±SEM Y312W-hKOR (Y312W-hKOR [20]; cAMP inhibition): 10.44±0.05 | Emax (Y312W-hKOR [20]; read-out: Gi Emax Y312W-hKOR): 97 ± 1%

O=C(N[C@@H]1CC[C@@]2(O)C3Cc4ccc(O)cc4[C@@]2(CCN3CC2CC2)C1)c1cccc(I)c1 [MP1601, N-((4bR,6R,8aS)-11-(Cyclopropylmethyl)-3,8a-dihydroxy-6,7,8,8a,9,10-hexahydro-5H-9,4b-(epiminoethano)phenanthren-6-yl)-3-iodobenzamide]
Ki (mMOR [1]): 0.2 ± 0.01 nM | Ki (mKOR [2]): 2.13 ± 0.3 nM | Ki (mDOR [3]): 5.37 ± 0.9 nM | Emax (mMOR [4]): 45 ± 4.6% | EC50 (mMOR [4]): 0.5 ± 0.2 nM | Emax (mKOR [5]): 72 ± 4.5% | EC50 (mKOR [5]): 3 ± 0.7 nM | Emax (mDOR [6]): 67 ± 3.9% | EC50 (mDOR [6]; [35S]GTPγS, nM ± SEM): 10 ± 1.6 nM | Bias factor toward G protein, hMOR (hMOR [7]): 4 | Gi pEC50±SEM hMOR (hMOR [7]): 9.99±0.09 | Emax (hMOR [7]): 69 ± 1% | EC50 (hMOR [7]; read-out: Gi EC50 hMOR): 0.1 nM | Emax (hMOR [8]): 27 ± 2% | Arrestin pEC50±SEM hMOR (hMOR [8]; Tango): 8.4±0.2 | Emax (hKOR [9]): 109 ± 1% | Gi pEC50±SEM hKOR (hKOR [9]): 9.76±0.05 | Bias factor toward G protein, hKOR (hKOR [9]): 0.15 | EC50 (hKOR [9]): 0.17 nM | Emax (hKOR [10]): 107 ± 3% | Arrestin pEC50±SEM hKOR (hKOR [10]; Tango, WT-hKOR): 8.49±0.07 | Gi pEC50±SEM mMOR [11]: 8.6±0.3 | EC50 ([11]; read-out: Gi EC50 mMOR): 2.2 nM | Emax [11]: 49 ± 3% | arrestin recruitment at mMOR [12]: no arrestin recruitment was observed | Gi pEC50±SEM rKOR [13]: 8.1±0.12 | Bias factor toward G-protein, rKOR ([13]; BRET assays, against U50,488H as control): 0.9 | EC50 [13]: 8.9 nM | Emax [13]: 75 ± 3% | Emax [14]: 37 ± 3% | Arrestin pEC50±SEM rKOR ([14]; BRET): 7.2±0.23 | EC50 ([14]; BRET): 56.5 nM | G-Protein activation pEC50 ± SEM ([15]; mDOR, BRET): 8.2 ± 0.20 | Emax [15]: 105 ± 6.7% | EC50 ([21]; mDOR, BRET): 9 nM | Emax ([21]; read-out: Arrestin recruitment Emax % ± SEM): 16 ± 1.4% | EC50 (hDOR [17]; hDOR): 2.76 nM | cAMP inhibition pEC50 ± SEM (hDOR [17]; hDOR): 8.6 ± 0.06 | Emax (hDOR [17]): 106 ± 2.3% | Arrestin recruitment pEC50 ± SEM (hDOR [19]): 7.1 ± 0.06 | EC50 (hDOR [19]): 86.7 nM | Emax (hDOR [19]): 203 ± 5.4%

CN1CC[C@]23c4c5ccc(O)c4O[C@H]2[C@@H](O)C=C[C@H]3[C@H]1C5 [Morphine, reference compound]
antinociceptive ED50 (95% CI), reported (C57BL/6J mice [22]): 2.35 (1.13-5.03) nmol and 2.35 nmol | respiratory rate (C57 mice): significant reduction in respiratory rates | respiratory rate (C57 mice; listed as morphine): decreased respiratory rate | conditioned place preference or aversion (CPP/CPA) (C57BL/6J mice [23]): place preference
